The values below are quoted from earlier work in patent US20140350454A1, “IRRADIATION APPARATUS” (Photocure ASA, priority 2011, published 2014).

Data set [1] relates to VIN. To be noted: VIN patients, topical 5-ALA 20% w/w in Unguentum Merck, 4 hours incubation, 630 nm non-laser light.
Data set [2] concerns lesions of VIN 1-3. To be noted: 25 patients, 111 lesions of VIN 1-3; 10 ml 5-ALA solution 20% w/w in saline, 4-5 hours under occlusion; 635 nm laser, 100 J/cm^2, 150 mW/cm^2; repeated PDT.
In data set [3] the test system is VIN. The note with it: bioadhesive patch 38 mg/cm^2 5-ALA in dry form, in situ 4-6 hours; 630 nm non-laser lamp, 20-30 min, 100 J/cm^2; repeated PDT.

SMILES strings stand for the structures. Where two headings read alike, the source gives them in different places.

For `NCC(=O)CCC(=O)O` [5-ALA, 5-aminolevulinic acid], the response rate result in data set [1] (light dose 50 J/cm^2) is reported as “unacceptably low”. For the same compound, the values for the clearance rate in data set [1] (light dose 100 J/cm^2) and in data set [3] were 40-60% and 52%, respectively. Moreover, the “complete response (of the patients)” value in data set [2] is listed as 52%.
